These results are taken from ChEMBL document CHEMBL1150024, “Synthesis and antiviral evaluation of enantiomeric 2,3-dideoxy- and 2,3-didehydro-2,3-dideoxy-4-thionucleosides” (Bioorg Med Chem Lett, 1995).

One data set relates to HepG2. The experiment in a line: In vitro antiviral activity against HBV in Hep G2 cells. The data set is classed as functional, cell-based. The settings on record: Homo sapiens.
The test system of the next data set is HeLa. The data set is described as follows: In vitro antiviral activity against HIV in HeLa CD4 cells. It counts as functional, cell-based. Conditions: Homo sapiens.
Data set [1] can be described thus: In vitro cytotoxic activity against Vero cells. The settings on record: chlorocebus sabaeus, read-out: CCID50. It counts as cell-based.

In the case of `Nc1nc(=O)n([C@@H]2CC[C@H](CO)O2)cc1F`, the IC50 – broadly, the concentration that inhibits the measured activity by half – with HepG2 is above 100 µM; in the data set with HeLa, above 50 µM. Moreover, in data set [1], the CC50 is above 500 µM.
The corresponding values for `Nc1ccn([C@@H]2CC[C@H](CO)O2)c(=O)n1` are above 100 µM, above 50 µM and above 500 µM.
With `Nc1nc(=O)n([C@H]2C=C[C@@H](CO)S2)cc1F`, the concentration for half-maximal inhibition (IC50) was above 50 µM with HepG2 and below 50 µM with HeLa. For the same compound, the CC50 in data set [1] is above 500 µM.
Take `Nc1nc(=O)n([C@@H]2C=C[C@H](CO)S2)cc1F`: the IC50 turned out to be 3.5 µM in the data set on HepG2 and 0.4 µM with HeLa. Besides, in data set [1], the CC50 is above 500 µM.
The corresponding values for `Nc1ccn([C@H]2C=C[C@@H](CO)S2)c(=O)n1` are 15 µM, 23 µM and above 500 µM.
The corresponding values for `Nc1ccn([C@H]2CC[C@@H](CO)O2)c(=O)n1` [ZALCITABINE] are above 100 µM, 38 µM and above 500 µM.
Turning to `Nc1ccn([C@@H]2C=C[C@H](CO)S2)c(=O)n1`, the IC50 in the data set on HepG2 and in the data set with HeLa was 0.8 µM throughout. In addition, in data set [1], the CC50 is above 500 µM.
